ChEMBL document CHEMBL5528020, “Small molecular CD73 inhibitors: Recent progress and future perspectives” (Eur J Med Chem, 2024)

Target: 5'-nucleotidase (Homo sapiens, UniProt P21589)
Assay: Inhibition of human recombinant Ecto-5'-nucleotidase

5'-nucleotidase, sequence (P21589 whole entry): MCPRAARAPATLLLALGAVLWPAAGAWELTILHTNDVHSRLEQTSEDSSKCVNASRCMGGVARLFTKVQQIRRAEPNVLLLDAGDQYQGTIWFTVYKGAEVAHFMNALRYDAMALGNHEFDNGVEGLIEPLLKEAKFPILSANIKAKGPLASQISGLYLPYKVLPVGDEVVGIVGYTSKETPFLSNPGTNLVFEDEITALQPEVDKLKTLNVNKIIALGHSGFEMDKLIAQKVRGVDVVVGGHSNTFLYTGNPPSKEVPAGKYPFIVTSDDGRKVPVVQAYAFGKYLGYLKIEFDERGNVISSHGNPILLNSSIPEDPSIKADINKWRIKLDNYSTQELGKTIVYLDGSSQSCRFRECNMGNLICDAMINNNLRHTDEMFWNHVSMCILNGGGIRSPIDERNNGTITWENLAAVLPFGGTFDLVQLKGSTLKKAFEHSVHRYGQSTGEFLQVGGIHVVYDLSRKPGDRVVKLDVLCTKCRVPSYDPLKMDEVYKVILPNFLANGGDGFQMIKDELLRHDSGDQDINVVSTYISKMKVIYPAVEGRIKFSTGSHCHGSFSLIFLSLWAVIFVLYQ

IC50, > 0.1 nM:
O=S(=O)(c1ccc(-n2nccc2-c2ccc3nnn(-c4ccc5cn[nH]c5c4)c3c2)c(Br)c1)C(F)(F)F
N#Cc1ccc(-c2ncsc2-c2cc3c(-c4ccc5cn[nH]c5c4)nnc-3co2)cc1
Cc1nc(-c2ccnn2-c2ccc(C#N)cc2)nc2cc(-c3ccc4cn[nH]c4c3)cnc12
O=S(=O)(c1ccc(-n2nccc2-c2ccc3nnn(-c4ccc5cn[nH]c5c4)c3c2)cc1Br)C(F)(F)F
CC1NC(n2nnc3ccc(-c4ccnn4-c4ccc(C#N)cc4)cc32)CCS1 (stereo not drawn)
O=S(=O)(c1ccc(-c2nsnc2-c2cc3c(-c4cccc(O)c4)nnc-3co2)cc1Br)C(F)(F)F
O=S(=O)(c1ccc(-c2nn[nH]c2-c2cc3c(-c4cccc(O)c4)nnc-3co2)cc1Br)C(F)(F)F
N#Cc1ccc(-n2nccc2-c2ccc3nnn(-c4cccc(O)c4)c3c2)cc1
